Where two headings read alike, the source gives them in different places.
Legend:
PAM enzyme [1] = assay: amount of C-terminal α-amidated Pro of the expressed antibody (in vivo PAM activity), SF system; type: cell-based, Chinese hamster
Procedure: (§1) Experiments (using different illustrative glycoproteins) were performed in shake flask (SF) systems, where […] SFs with a final volume of 125 ml were used. All experiments started by thawing of a research working cell bank (rWCB), such as CHO cell line DP-12 (CHO DP-12 clone #1934 [CHO DP-12, clone #1934 aIL8.92 NB 28605/14] (ATCC® CRL-12445™) producing recombinant human anti-IL-8 or CHO-SSF cells expressing a monoclonal antibody directed to tumour necrosis factor, TNF (see PCT/EP2011/074181 for further details) followed by several subcultivations under standard conditions according to manufacture instructions until enough cells for the inoculation were available For all experiments, a 14 days generic fed batch fermentation was used and a generic feeding regime comprising feeding of glucose, glutamine and amino acids was performed. All SFs were incubated in a shaker incubator (Kuhner, Switzerland) at the following conditions: temperature of 36.5° C., CO2=10% and shaking speed 200 rpm.
(§2) At the end of 14 days of BR and SF bioprocesses (i.e., on day 14), harvests were sampled to 50 ml centrifuge tubes. […] Purification was done either using AKTA chromatography system with 1 ml HiTrap column (GE Healthcare, cat. no. 11-0034-93) or TECAN Freedom EVO pipetting station with 200 μl RoboColumns (Atoll, cat. no. 01050408R).
(§3) To measure the amount of C-terminal α-amidated Pro and the amount of C-terminal Lys, Cation Exchange Chromatography (CEX) was performed according to the laboratory procedure. Main charged variants were designated as 0K, pseudo 1K (1+) and pseudo 2K (2+). The positive charge refers to the Lys or α-amidated Pro at the C-terminus of the heavy chain. Charged variants (Lys, α-amidated Pro) were differentiated by CP cleavage of C-terminal Lys followed by the same CEX analysis. Structures eluting before the main three variants were designated as AP (acidic peaks) and those eluting after them as BP (basic peaks).
(§4) The experiment was performed in 500 ml SF with a final volume of 125 ml. After 14 days of fed batch bioprocess, harvests were collected, centrifuged, sterile filtered through a PES membrane and immediately subjected to a single step affinity chromatography (AC) purification and a subsequent analysis of C-terminal α-amidation by […]. Design Expert version 7.1.3 (Stat-Ease, Inc., Minneapolis, USA) was used to build the response surface design and to perform the statistical analysis of the experimental results. A MinRes IV design was used to determine the influence of the tested trace elements on cell productivity, C-terminal α-amidation and C-terminal carboxypeptidation of the investigated monoclonal antibody. Analyzed design expert (Stat-Ease, Inc., Minneapolis, USA) responses included end of fed-batch titer, amount of C-terminal α-amidated Pro and amount of C-terminal Lys.
(§5) The experiment was performed in 500 ml SF with a final volume of 125 ml. After 14 days of fed batch bioprocess, harvests were collected, centrifuged, sterile filtered through a PES membrane and immediately subjected to a single step AC purification and a subsequent analysis of C-terminal α-amidation by […].
(§6) After performing the above described analytical steps, the measured values were inserted into the DOE program and analyzed. The α-value of statistical significance was set to 0.100, which means that factors with a P-value higher than 0.100 were excluded from the statistical mode since they were non-significant.

[2] = tested on: CHO cells expressing a monoclonal antibody; assay: titer in 5 L bioreactor (BR) fed batch culture; type: cell-based, Chinese hamster; conditions: 5 L BR
Procedure: (§7) All experiments were performed in 5 L BRs.

[3] = tested on: CHO cells expressing a monoclonal antibody; assay: end of fed-batch titer in shake flask (SF) fed batch culture; type: cell-based, Chinese hamster
Procedure: as §1, §4
Effects that were above the Bonferroni limit were certainly significant and effects that were above the t-Value limit were possibly significant. Effects that were below the t-Value limit were not selected as they were not significant. After selecting significant effects, the ANOVA statistical program was employed to confirm that only statistically significant effects were included in the model.
as §5, §6

PAM enzyme [4] = assay: amount of C-terminal α-amidated Pro (in vivo PAM activity), BR system; type: cell-based, Chinese hamster; conditions: 5 L BR
Procedure: as §2, §3, §7

CHO cells [5] = assay: cell viability in SF culture (trypan blue exclusion); type: cell-based, Chinese hamster; conditions: experiment 2, SF; selenium 3 μM (data not shown)
Procedure: Experiments (using different illustrative glycoproteins) were performed in shake flask (SF) systems, where […] SFs with a final volume of 125 ml were used.
as §5

CP enzyme [6] = assay: amount of C-terminal Lys (in vivo CP activity), BR system; type: cell-based, Chinese hamster; conditions: 5 L BR
Procedure: as §2, §3, §7
To test the effect of zinc on the CP activity, three different zinc chloride concentrations were tested, namely 3.7 μM, 11 μM and 22 μM. […] In regard to productivity, a constant drop of productivity was measured with the decrease of the zinc concentration.

CHO cells [7] = conditions: 5 L BR
Procedure: All results were finally confirmed in a bioreactor (BR) system, where 5 L glass bioreactors were used.
In both the SF and BR system, the cell growth and cell viability were measured with the Vi-Cell XR analyzer (Beckman Coulter) using the trypan blue exclusion method for cell viability determination and automated cell counting for determination of the cell concentration. The monoclonal antibody content was determined by affinity liquid chromatography (ALC). A calibration curve was made by diluting the generic reference. […] The results were expressed in gram (g) of protein per liter (L) of harvest.
The obtained SF results were finally also tested in a bioreactor (BR) environment. All experiments were performed in 5 L BRs.

CP enzyme [8] = assay: amount of C-terminal Lys of the expressed antibody (in vivo CP activity), SF system; type: cell-based, Chinese hamster
Procedure: as §1, §2, §3, §4, §5, §6

In the case of [Cl][Cu][Cl] [copper, copper chloride], the “increase of amount of C-terminal α-amidated Pro” value (PAM enzyme [1]; experiment 1, SF, 10-fold increased copper (FIG. 4)) is reported as 2.5%, the “amount of C-terminal α-amidated Pro” value (PAM enzyme [1]; experiment 2, DOE model, copper 0.06 μM) is reported as 2.1% and the “amount of C-terminal α-amidated Pro” value (PAM enzyme [1]; experiment 2, DOE model, copper 0.18 μM) is reported as 2.2%.
For O=[Se]([O-])[O-].[Na+].[Na+] [selenium, sodium selenite], the titer decrease ([2]; 2.31 μM versus 0.17 μM selenium (FIG. 11B)) was 1 g/L, the titer ([3]; experiment 1, SF, selenium 0.017 μM) was 0.4 g/L and the effect on titer ([3]; experiment 2, SF, selenium above 3 μM (FIG. 7)) was “titer decrease”. For the same compound, the “C-terminal α-amidated Pro” value (PAM enzyme [4]; 0.17 μM selenium (FIG. 12)) was 9.3%, the “C-terminal α-amidated Pro” value (PAM enzyme [4]; 2.31 μM selenium (FIG. 12)) was 2.25% and the “amount of C-terminal α-amidated Pro” value (PAM enzyme [1]; experiment 1, SF, 10-fold increased selenium (FIG. 4)) was 4.5%. For the same compound, the “amount of C-terminal α-amidated Pro” value (PAM enzyme [1]; experiment 1, SF, before 10-fold increase of selenium (FIG. 4)) was 6.5%, the “amount of C-terminal α-amidated Pro” value (PAM enzyme [1]; experiment 2, selenium 0.17 μM (FIG. 8)) was 2.2% and the “amount of C-terminal α-amidated Pro” value (PAM enzyme [1]; experiment 2, selenium 3.00 μM (FIG. 8)) was 1.26%. The viability (CHO cells [5]) was “below 80%”.
For [Cl-].[Cl-].[Zn+2] [zinc, zinc chloride], the final titer ([2]; highest zinc concentration, 22 μM (FIG. 13B)) was 3.86 g/L, the final titer ([2]; lowest zinc concentration, 3.7 μM (FIG. 13B)) was 1.86 g/L and the final titer ([2]; zinc 11 μM (FIG. 13B)) was 2.90 g/L. The “C-terminal Lys” value (CP enzyme [6]; 3.7 μM zinc (FIG. 14)) was 6%, the “C-terminal Lys” value (CP enzyme [6]; 22 μM zinc (FIG. 14)) was 3.15% and the cell culture growth (CHO cells [7]; 3.7 μM zinc (FIG. 13A)) was “significantly lower growth”. The cell culture growth (CHO cells [7]; 11 μM compared with 22 μM zinc (FIG. 13A)) was “well comparable”, the titer ([3]; experiment 1 (MinRes IV), SF, 14 days fed batch, zinc 2.201 μM) was 0.4 g/L and the titer ([3]; experiment 1, SF, zinc 22.012 μM) was 0.6 g/L. For the same compound, the titer ([3]; experiment 2 (central composite design), DOE model, zinc 7 μM (FIG. 7)) was 0.4 g/L, the titer ([3]; experiment 2, DOE model, zinc 12 μM (FIG. 7)) was “above 0.6 g/L” and the “amount of C-terminal Lys” value (CP enzyme [8]; confirmation, SF, three parallels, 2.3 μM zinc (FIG. 10B)) was 15.97%±0.79%. The “amount of C-terminal Lys” value (CP enzyme [8]; confirmation, SF, three parallels, unchanged in-house medium, 22 μM zinc (FIG. 10B)) was 1.99%±0.08%, the “amount of C-terminal Lys” value (CP enzyme [8]; experiment 1, SF, 10-fold increased zinc (FIG. 6)) was 8.5% and the “amount of C-terminal Lys” value (CP enzyme [8]; experiment 1, SF, before 10-fold increase of zinc (FIG. 6)) was 22%. The “amount of C-terminal Lys” value (CP enzyme [8]; experiment 2, DOE model, zinc 0.15 μM (FIG. 9)) was 15% and the “amount of C-terminal Lys” value (CP enzyme [8]; experiment 2, DOE model, zinc 5.00 μM (FIG. 9)) was 5%.

From US10196601B2, “Cell culture medium and process for controlling α-amidation and/or C-terminal amino acid cleavage of polypeptides” (LEK PHARMACEUTICALS D.D., priority 2013, dated 2019)
